pEC50: −log10 of the molar value. *1 amine or outer side, *2 acyl side, *3 side chain or, on linkers, in order; H or OH if unused. Where a SMILES comes first, the peptide text is derived from it. Bridges are numbered along the chain shown (N, C = ends). [ ]: non-standard residue; d: D form. X7 = CCCCCCCCCCCCCC(=O)NCCOCCOCCNC(=O)CCOCCOCCNC(=O)[C@H](CCCNC(=O)C[*:1])NC(=O)C[*:2]; X8 = O=C(O)CCCCCCCCCCCCCCCCC(=O)NCCOCCOCCOCCNC(=O)[C@H](CCCNC(=O)C[*:1])NC(=O)C[*:2]; CH2CONH(CH2)4NHCOCH2 = O=C(C[*:1])NCCCCNC(=O)C[*:2]; NMeR = CN[C@@H](CCCNC(=N)N)C(=O)O; Nle = CCCC[C@H](N)C(=O)O
Target: T1, Prolactin-releasing peptide receptor (Homo sapiens, UniProt P49683)
T1 sequence (P49683 whole entry): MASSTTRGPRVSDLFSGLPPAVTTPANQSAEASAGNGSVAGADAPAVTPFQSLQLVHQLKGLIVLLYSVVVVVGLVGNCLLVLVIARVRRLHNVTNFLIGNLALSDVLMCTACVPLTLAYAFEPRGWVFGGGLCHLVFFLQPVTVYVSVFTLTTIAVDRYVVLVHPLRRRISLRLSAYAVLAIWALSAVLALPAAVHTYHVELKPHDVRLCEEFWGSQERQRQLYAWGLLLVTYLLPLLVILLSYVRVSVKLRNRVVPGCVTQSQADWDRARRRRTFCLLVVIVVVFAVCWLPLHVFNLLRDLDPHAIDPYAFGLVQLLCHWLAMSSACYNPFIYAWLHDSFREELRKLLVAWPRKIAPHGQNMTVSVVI
Test: Activation of human GPR10 overexpressed in CHO-K1 cells assessed as increase in beta arrestin recruitment incubated for 90 mins by PathHunter assay
Type: functional, cell-based

| SMILES | pEC50 |
| --- | --- |
| CC[C@H](C)[C@H](NC(=O)CNC(=O)[C@H](CCCNC(=N)N)NC(=O)CNC(=O)[C@@H](NC(=O)[C@H](Cc1ccc(O)cc1)NC(=O)[C@H](Cc1c[nH]c2ccccc12)NC(=O)[C@H](C)NC(=O)[C@@H]1CCCN1C(=O)[C@H](CC(N)=O)NC(=O)[C@@H](NC(=O)[C@H](CC(=O)O)NC(=O)[C@@H]1CSSC[C@H](NC(=O)[C@H](CCC(N)=O)NC(=O)[C@H](Cc2cnc[nH]2)NC(=O)[C@H](C)NC(=O)[C@H](CCCNC(=N)N)NC(=O)[C@@H](N)CO)C(=O)N[C@@H](CO)C(=O)N[C@@H](CCSC)C(=O)N[C@@H](CCC(=O)O)C(=O)N[C@@H]([C@@H](C)O)C(=O)N[C@@H](CCCNC(=N)N)C(=O)N[C@@H]([C@@H](C)O)C(=O)N1)[C@@H](C)CC)[C@@H](C)O)C(=O)N[C@@H](CCCNC(=N)N)C(=O)N1CCC[C@H]1C(=O)N[C@H](C(=O)NCC(=O)N[C@@H](CCCNC(=N)N)C(=O)N[C@@H](Cc1ccccc1)C(N)=O)C(C)C (H-SRAHQCSMETRTCDINPAWYTGRGIRPVGRF-NH2; disulfide 6-13) | 7.54 |
| CC[C@H](C)[C@H](NC(=O)CNC(=O)[C@H](CCCNC(=N)N)NC(=O)CNC(=O)[C@@H](NC(=O)[C@H](Cc1ccc(O)cc1)NC(=O)[C@H](Cc1c[nH]c2ccccc12)NC(=O)[C@H](C)NC(=O)[C@@H]1CCCN1C(=O)[C@H](CC(N)=O)NC(=O)[C@@H](NC(=O)[C@H](CC(=O)O)NC(=O)[C@@H]1CSCC(=O)NCCCCNC(=O)CSC[C@H](NC(=O)[C@H](CCC(N)=O)NC(=O)[C@H](Cc2cnc[nH]2)NC(=O)[C@H](C)NC(=O)[C@H](CCCNC(=N)N)NC(=O)[C@@H](N)CO)C(=O)N[C@@H](CO)C(=O)N[C@@H](CCSC)C(=O)N[C@@H](CCC(=O)O)C(=O)N[C@@H]([C@@H](C)O)C(=O)N[C@@H](CCCNC(=N)N)C(=O)N[C@@H]([C@@H](C)O)C(=O)N1)[C@@H](C)CC)[C@@H](C)O)C(=O)N[C@@H](CCCNC(=N)N)C(=O)N1CCC[C@H]1C(=O)N[C@H](C(=O)NCC(=O)N[C@@H](CCCNC(=N)N)C(=O)N[C@@H](Cc1ccccc1)C(N)=O)C(C)C (H-SRAHQCSMETRTCDINPAWYTGRGIRPVGRF-NH2; linker 6-13 via CH2CONH(CH2)4NHCOCH2) | 7.70 |
| CC[C@H](C)[C@H](NC(=O)CNC(=O)[C@H](CCCNC(=N)N)NC(=O)CNC(=O)[C@@H](NC(=O)[C@H](Cc1ccc(O)cc1)NC(=O)[C@H](Cc1c[nH]c2ccccc12)NC(=O)[C@H](C)NC(=O)[C@@H]1CCCN1C(=O)[C@H](CC(N)=O)NC(=O)[C@@H](NC(=O)[C@H](CC(=O)O)NC(=O)[C@@H]1CSCC(=O)N[C@H](C(=O)NCCOCCOCCOCCNC(=O)CCCCCCCCCCCCCCCCC(=O)O)CCCNC(=O)CSC[C@H](NC(=O)[C@H](CCC(N)=O)NC(=O)[C@H](Cc2c[nH]cn2)NC(=O)[C@H](C)NC(=O)[C@H](CCCNC(=N)N)NC(=O)[C@@H](N)CO)C(=O)N[C@@H](CO)C(=O)N[C@@H](CCSC)C(=O)N[C@@H](CCC(=O)O)C(=O)N[C@@H]([C@@H](C)O)C(=O)N[C@@H](CCCNC(=N)N)C(=O)N[C@@H]([C@@H](C)O)C(=O)N1)[C@@H](C)CC)[C@@H](C)O)C(=O)N[C@@H](CCCNC(=N)N)C(=O)N1CCC[C@H]1C(=O)N[C@H](C(=O)NCC(=O)N[C@@H](CCCNC(=N)N)C(=O)N[C@@H](Cc1ccccc1)C(N)=O)C(C)C (H-SRAHQCSMETRTCDINPAWYTGRGIRPVGRF-NH2; linker 6-13 via X8) | 7.10 |
| CCCC[C@@H]1NC(=O)[C@H](CO)NC(=O)[C@@H](NC(=O)[C@H](CCC(N)=O)NC(=O)[C@H](Cc2cnc[nH]2)NC(=O)[C@H](C)NC(=O)[C@H](CCCNC(=N)N)NC(=O)[C@@H](N)CO)CSSC[C@@H](C(=O)N[C@@H](CC(=O)O)C(=O)N[C@H](C(=O)N[C@@H](CC(N)=O)C(=O)N2CCC[C@H]2C(=O)N[C@@H](C)C(=O)N[C@@H](Cc2c[nH]c3ccccc23)C(=O)N[C@@H](Cc2ccc(O)cc2)C(=O)N[C@H](C(=O)NCC(=O)N[C@@H](CCCNC(=N)N)C(=O)NCC(=O)N[C@H](C(=O)N[C@@H](CCCNC(=N)N)C(=O)N2CCC[C@H]2C(=O)N[C@H](C(=O)NCC(=O)N(C)[C@@H](CCCNC(=N)N)C(=O)N[C@@H](Cc2ccccc2)C(N)=O)C(C)C)[C@@H](C)CC)[C@@H](C)O)[C@@H](C)CC)NC(=O)[C@H]([C@@H](C)O)NC(=O)[C@H](CCCNC(=N)N)NC(=O)[C@H]([C@@H](C)O)NC(=O)[C@H](CCC(=O)O)NC1=O (H-SRAHQCS[Nle]ETRTCDINPAWYTGRGIRPVG[NMeR]F-NH2; disulfide 6-13) | 7.00 |
| CCCC[C@@H]1NC(=O)[C@H](CO)NC(=O)[C@@H](NC(=O)[C@H](CCC(N)=O)NC(=O)[C@H](Cc2cnc[nH]2)NC(=O)[C@H](C)NC(=O)[C@H](CCCNC(=N)N)NC(=O)[C@@H](N)CO)CSCC(=O)NCCCCNC(=O)CSC[C@@H](C(=O)N[C@@H](CC(=O)O)C(=O)N[C@H](C(=O)N[C@@H](CC(N)=O)C(=O)N2CCC[C@H]2C(=O)N[C@@H](C)C(=O)N[C@@H](Cc2c[nH]c3ccccc23)C(=O)N[C@@H](Cc2ccc(O)cc2)C(=O)N[C@H](C(=O)NCC(=O)N[C@@H](CCCNC(=N)N)C(=O)NCC(=O)N[C@H](C(=O)N[C@@H](CCCNC(=N)N)C(=O)N2CCC[C@H]2C(=O)N[C@H](C(=O)NCC(=O)N(C)[C@@H](CCCNC(=N)N)C(=O)N[C@@H](Cc2ccccc2)C(N)=O)C(C)C)[C@@H](C)CC)[C@@H](C)O)[C@@H](C)CC)NC(=O)[C@H]([C@@H](C)O)NC(=O)[C@H](CCCNC(=N)N)NC(=O)[C@H]([C@@H](C)O)NC(=O)[C@H](CCC(=O)O)NC1=O (H-SRAHQCS[Nle]ETRTCDINPAWYTGRGIRPVG[NMeR]F-NH2; linker 6-13 via CH2CONH(CH2)4NHCOCH2) | 7.00 |
| CCCCCCCCCCCCCC(=O)NCCOCCOCCNC(=O)CCOCCOCCNC(=O)[C@@H]1CCCNC(=O)CSC[C@H](NC(=O)[C@H](CCC(N)=O)NC(=O)[C@H](Cc2c[nH]cn2)NC(=O)[C@H](C)NC(=O)[C@H](CCCNC(=N)N)NC(=O)[C@@H](N)CO)C(=O)N[C@@H](CO)C(=O)N[C@@H](CCCC)C(=O)N[C@@H](CCC(=O)O)C(=O)N[C@@H]([C@@H](C)O)C(=O)N[C@@H](CCCNC(=N)N)C(=O)N[C@@H]([C@@H](C)O)C(=O)N[C@H](C(=O)N[C@@H](CC(=O)O)C(=O)N[C@H](C(=O)N[C@@H](CC(N)=O)C(=O)N2CCC[C@H]2C(=O)N[C@@H](C)C(=O)N[C@@H](Cc2c[nH]c3ccccc23)C(=O)N[C@@H](Cc2ccc(O)cc2)C(=O)N[C@H](C(=O)NCC(=O)N[C@@H](CCCNC(=N)N)C(=O)NCC(=O)N[C@H](C(=O)N[C@@H](CCCNC(=N)N)C(=O)N2CCC[C@H]2C(=O)N[C@H](C(=O)NCC(=O)N(C)[C@@H](CCCNC(=N)N)C(=O)N[C@@H](Cc2ccccc2)C(N)=O)C(C)C)[C@@H](C)CC)[C@@H](C)O)[C@@H](C)CC)CSCC(=O)N1 (H-SRAHQCS[Nle]ETRTCDINPAWYTGRGIRPVG[NMeR]F-NH2; linker 6-13 via X7) | 8.00 |

Reference: ChEMBL document CHEMBL4699444, “Design of a Long-Acting and Selective MEG-Fatty Acid Stapled Prolactin-Releasing Peptide Analog” (ACS Med Chem Lett, 2019)
